Data reported in US12606556B2, “TYK-2 inhibitor” (BEIGENE, LTD., priority 2020, dated 2026).

Tests used:
[1] = tested on: JAK2, TYK2/p-STAT4 (Tyr693) activated by IL-12 in NK-92 cell line; assay: IL-12-JAK2, TYK2/p-STAT4 (Tyr693) inhibition cellular assay; assay type: cell-based; settings: for IC50: NK92, 0.5 h, NK-92 cells, IL-12 40 ng/ml, 30 min, read-out: Cellular assay pSTAT4/IL-12 IC50; for Cellular assay Selectivity fold (TYK2/JAK1): pSTAT4/IL-12 vs pSTAT3/IL-6 cellular IC50
Source text: Assay C: IL-12-JAK2, TYK2/p-STAT4 (Tyr693) Inhibition IC50 Cellular Assay
To evaluate the inhibition effect of compounds disclosed herein on JAK2, TYK2/p-STAT4 (Tyr693) activated by IL-12 in NK-92 cell line, NK-92 cells were collected and washed 3 times by DPBS and resuspended in MEM-α(GIBCO,Cat #12561056) with 10% FBS (Gibco, Cat #10099, Lot #1891605), without IL-2 (R&D systems,Cat #202-IL), starved overnight. Cells were collected and resuspended in 1640 medium (phenol red free, Gibco, Cat #11835-030) with 0.1% BSA, and 12.5 μl/5×10^4/well cell suspension were seeded to the 96-well plate (Corning, Cat #3799). Then cells were treated with compounds diluted in 0.2% DMSO 1640 medium, at 37° C., 1 h. Dilution is done according to the following protocol: (1) make 500× compounds solution in DMSO from 5 mM by 4-fold dilution, total 8 doses were included; (3) make 2× compounds solution in assay medium by transferring 0.5 μl serial 500× stock solution into 125 μl assay medium; (4) 15 μl of 2× serial solution is added to cells and incubate at 37° C. for 1 h, the final compound conc. is 10000,2500,625,156.25,39,9.8,2.4 and 0.61 nM, respectively. After 1 h, cells were treated with 2.5 μl medium containing IL-12 at 37° C. (R&D systems, Cat #219-IL-005, final conc.40 ng/ml), 30 min. Following cells were lysed with 7.5 μl lysis buffer at RT, shaking on shaker for 1 h. 10 μL of cell lysate were transferred to a PE 384-well Proxiplate detection plate, and 5 μL of pre-mixed Alphascreen beads were added to each well. Covered the plate with a plate sealer, span 1000 rpm for 1 min, mix, Incubated overnight at room temperature. Read on BMG PheraStar with Alphascreen protocol. IC 50 values were calculated by fitting dependent data to the four-parameter logistic model using dotmatics software. The assay was performed by using AlphaLISA SureFire Ultra p-STAT4 (Tyr693) Assay Kit—High Volume (PE, Cat #ALSU-PST4-A-HV).

[2] = biological target: T1, JAK1-JH2 protein (aa 561-860, in-house) (Homo sapiens, UniProt P23458); assay: JAK1-JH2 biochemical assay (HTRF, blocking of JAK1-JH2 protein with its probe); assay type: binding; settings: 1.17 nM recombinant JAK1-JH2, Probe 2
T1 construct: JAK1-JH2 protein (aa 561-860, in-house); made in house
Description: Assay B: JAK1-JH2 Biochemical Assay
Compounds disclosed herein were tested for blocking of JAK1-JH2 protein (aa 561-860, in-house) with its probe in an assay based on Homogeneous Time Resolved Fluorescence. Compound dilution is done according to the following protocol: (1) Prepare 500× compounds solution in DMSO from 500 uM by 5-fold dilution, total 10 doses were included; (2) Prepare 10× compounds solution in an assay buffer containing 20 mM HEPES, pH 7.5, 10 mM MgCl2, 0.005% BSA, 2 mM DTT, 0.015% Brij-35 by transferring 1 μl serial 500× stock solution into 49 μl assay buffer. 4 μL of 1.17 nM recombinant JAK1-JH2 protein was pre-incubated with 1 μl of 10×serial dilution of compounds at room temperature for 0.5 hour. […] The HTRF signals (ex337 nm, em620 nm/665 nm) were read on BMG PHERAstar FS instrument. The inhibition percentage of JAK1 interaction with its probe in presence of increasing concentrations of compounds was calculated based on the ratio of fluorescence at 615 nm to that at 665 nm. The IC50 for each compound was derived from fitting the data to the four-parameter logistic equation by Dotmatics.

[3] = tested on: JAK1/p-STAT3(Tyr705) activated by IL-6 in TF-1 cell line; assay: IL-6-JAK1/p-STAT3(Tyr705) inhibition cellular assay; assay type: cell-based; settings: Homo sapiens, 0.5 h; TF-1 cells, IL-6 50 ng/ml, 30 min; read-out: Cellular assay pSTAT3/IL-6 IC50
Source text: Assay D: IL-6-JAK1/p-STAT3(Tyr705) Inhibition IC50 Cellular Assay
To evaluate the inhibition effect of compounds disclosed herein on JAK1/p-STAT3(Tyr705) activated by IL-6 in TF-1 cell line, TF-1 cells were collected and washed 3 times by DPBS and resuspended in RPMI-1640 (phenol red free, Gibco, Cat #11835-030) with 0.1% FBS (Gibco, Cat #10099, Lot #1891605), without GM-CSF(R&D systems,Cat #215-GM-050), starved overnight. Cells were collected and resuspended in 1640 medium (phenol red free, Gibco, Cat #11835-030) with 0.1% BSA, and 12.5 μl/10×10^4/well cell suspension were seeded to the 96-well plate (Corning, Cat #3799). Then cells were treated with compounds diluted in 0.2% DMSO 1640 medium, at 37° C., 1 h. Dilution is done according to the following protocol: (1) make 500× compounds solution in DMSO from 5 mM by 4-fold dilution, total 8 doses were included; (3) make 2× compounds solution in assay medium by transferring 0.5 μl serial 500× stock solution into 125 μl assay medium; (4) 15 μl of 2× solution is added to cells and incubate at 37° C. for 1 h, the final compound conc. is 10000,2500,625,156.25,39,9.8,2.4 and 0.61 nM, respectively. After 1 h, cells were treated with 2.5 μl medium containing IL-6 at 37° C. (R&D systems, Cat #206-IL-010, final conc.50 ng/ml), 30 min. Following cells were lysed with 10 μl lysis buffer at RT, shaking on shaker for 1 h. 16 μL of cell lysate were transferred to a PE 384-well HTRF detection plate, and 4 μL of pre-mixed HTRF antibodies were added to each well. Covered the plate with a plate sealer, span 1000 rpm for 1 min, mix, Incubated overnight at room temperature. Read on BMG PheraStar with HTRF protocol (337 nm-665 nm-620 nm). IC 50 values were calculated by fitting dependent data to the four-parameter logistic model using dotmatics software. The assay was performed by using HTRF Phospho-STAT3(Tyr705) Cellular Assay Kit (Cisbio, Cat #62AT3PEG).

[4] = biological target: T2, TYK2-JH2 (aa 575-869, in-house) protein (Homo sapiens, UniProt P29597); assay: TYK2-JH2 biochemical assay (HTRF, blocking of TYK2-JH2 protein with its probe); assay type: binding; settings: for IC50: HTRF, 0.2 nM recombinant TYK2-JH2, Probe 1; for Biochemical assay Selectivity fold (TYK2/JAK1): TYK2-JH2 vs JAK1-JH2 biochemical IC50
T2 construct: TYK2-JH2 (aa 575-869, in-house) protein; made in house
Description: Assay A: TYK2-JH2 Biochemical Assay
Compounds disclosed herein were tested for blocking of TYK2-JH2 (aa 575-869, in-house) protein with its probe in an assay based on Homogeneous Time Resolved Fluorescence.
Compound dilution is done according to the following protocol: (1) Prepare 500× compounds solution in DMSO from 500 uM by 5-fold dilution, total 10 doses were included; (2) Prepare 10× compounds solution in an assay buffer containing 20 mM HEPES, pH 7.5, 10 mM MgCl2, 0.005% BSA, 2 mM DTT, 0.015% Brij-35 by transferring 1 μl serial 500× stock solution into 49 μl assay buffer. 4 μl of 0.2 nM recombinant TYK2-JH2 protein was pre-incubated with 1 μl of 10×serial dilution of compounds at room temperature for 0.5 hour. Then 5 μl of 10 nM in-house Probe 1 (6-((3,5-dimethylphenyl)amino)-8-((4,26-dioxo-30-((3aS,4S,6aR)-2-oxohexahydro-1H-thieno[3,4-d]imidazol-4-yl)-7,10,13,16,19,22-hexaoxa-3,25-diazatriacontyl)amino)imidazo[1,2-b]pyridazine-3-carboxamide, KD=10 nM), 5 μl Mab Anti-6His Tb cryptate Gold (Cat: 61HI2TLB, Cisbio Bioassays) and Streptavidin-XL665(Cat: 610SAXLB, Cisobio Bioassays) mixture were added to plate and further incubated at room temperature for 1 hour. The HTRF signals (ex337 nm, em620 nm/665 nm) were read on BMG PHERAstar FS instrument. The inhibition percentage of TYK2 interaction with its probe in presence of increasing concentrations of compounds was calculated based on the ratio of fluorescence at […]. The IC50 for each compound was derived from fitting the data to the four-parameter logistic equation by Dotmatics.

T2 sequence (P29597 575-869): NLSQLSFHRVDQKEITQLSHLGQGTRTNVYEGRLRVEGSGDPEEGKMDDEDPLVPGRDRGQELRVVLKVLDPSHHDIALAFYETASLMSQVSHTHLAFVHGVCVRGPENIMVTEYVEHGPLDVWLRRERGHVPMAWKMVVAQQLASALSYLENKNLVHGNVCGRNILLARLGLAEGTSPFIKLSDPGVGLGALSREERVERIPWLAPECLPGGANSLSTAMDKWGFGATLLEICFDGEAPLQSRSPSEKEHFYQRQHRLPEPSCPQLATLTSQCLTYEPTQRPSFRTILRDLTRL
T1 sequence (P23458 561-860): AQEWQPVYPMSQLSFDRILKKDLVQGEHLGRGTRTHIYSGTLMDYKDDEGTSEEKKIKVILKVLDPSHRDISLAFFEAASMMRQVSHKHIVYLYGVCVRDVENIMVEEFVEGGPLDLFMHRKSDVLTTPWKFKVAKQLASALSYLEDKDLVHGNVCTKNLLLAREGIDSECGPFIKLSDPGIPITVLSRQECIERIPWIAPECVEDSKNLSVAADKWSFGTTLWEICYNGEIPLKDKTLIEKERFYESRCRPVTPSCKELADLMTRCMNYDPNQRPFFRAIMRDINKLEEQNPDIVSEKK

Row | SMILES | IC50 [1] [nM] | Cellular assay Selectivity fold (TYK2/JAK1) [1] [fold] | IC50 [2] [nM] | IC50 [3] [nM] | IC50 [4] [nM] | Biochemical assay Selectivity fold (TYK2/JAK1) [4] [fold]
1 | CNC(=O)c1nnc(NC(=O)C2CC2)cc1Nc1nc2ccc(OC3CN(C(C)=O)C3)cn2n1 [Example C4, 4-((6-((1-acetylazetidin-3-yl)oxy)-[1,2,4]triazolo [1,5-a]pyridin-2-yl)amino)-6-(cyclopro-panecarbox-amido)-N-methyl-pyridazine-3-carboxamide] | 309 | >32 | 1.2 | > 10000 | 0.08 | 15
2 | CNC(=O)c1nnc(NC(=O)C2CC2)cc1Nc1nc2ccc(OC3CN(C(=O)CC#N)C3)cn2n1 [Example C5, 4-((6-((1-(2-cyanoacetyl)azetidin-3-yl)oxy)-[1,2,4]triazolo[1,5-a]pyridin-2-yl)amino)-6-(cyclopro-panecarbox-amido)-N-methyl-pyridazine-3-carboxamide] | 1320 | >8 | 1.56 | > 10000 | 0.143 | 11
3 | CNC(=O)c1nnc(NC(=O)C2CC2)cc1Nc1nc2ccc(OC3CN(C4CCOC4)C3)cn2n1 (stereo not drawn) [Example D1, 6-(cyclopropanecarboxamido)-N-methyl-4-((6-((1-(tetrahydrofuran-3-yl)azetidin-3-yl)oxy)-[1,2,4]triazolo[1,5-a]pyridin-2-yl)amino)pyridazine-3-carboxamide] | 68.4 | >146 | 1.21 | > 10000 | 0.099 | 12
4 | CNC(=O)c1nnc(NC(=O)C2CC2)cc1Nc1nc2ccc(N3CCC3)cn2n1 [Example E1, 4-((6-(azetidin-1-yl)-[1,2,4]triazolo[1,5-a]pyridin-2-yl)amino)-6-(cyclopropanecarboxamido)-N-methylpyridazine-3-carboxamide] | 13.3 | 475 | 1.6 | 6330 | 0.047 | 34
5 | CNC(=O)c1nnc(NC(=O)C2CC2)cc1Nc1nc2ccc(N3CC(OC)C3)cn2n1 [Example E2, 6-(cyclopropanecarboxamido)-4-((6-(3-methoxyazetidin-1-yl)-[1,2,4]triazolo[1,5-a]pyridin-2-yl)amino)-N-methylpyridazine-3-carboxamide] | 9.01 | 1087 | 1.2 | 9800 | 0.047 | 26
6 | [2H]C([2H])([2H])NC(=O)c1nnc(NC(=O)C2CC2)cc1Nc1nc2ccc(N3CCC3)cn2n1 [Example E3, 4-((6-(azetidin-1-yl)-[1,2,4]triazolo [1,5-a]pyridin-2-yl)amino)-6-(cyclopropanecarbox-amido)-N-(methyl-d3) pyridazine-3-carboxamide] | 8.9 | 453 | 1.3 | 4060 | 0.038 | 34
7 | CNC(=O)c1nnc(NC(=O)C2CC2)cc1Nc1nc2ccc(N3CC(CC(F)F)C3)cn2n1 [Example E4, 6-(cyclopropanecar-boxamido)-4-((6-(3-(2,2-difluoroethyl)azetidin-1-yl)-[1,2,4]triazolo[1,5-a]pyridin-2-yl)amino)-N-methylpyridazine-3-carboxamide] | 10 | 540 | 1.5 | 5400 | 0.044 | 34
8 | CNC(=O)c1nnc(NC(=O)C2CC2)cc1Nc1nc2ccc(N3CC(N(C)C)C3)cn2n1 [Example E5, 6-(cyclopropanecar-boxamido)-4-((6-(3-(dimethylamino)azetidin-1-yl)-[1,2,4]triazolo [1,5-a]pyridin-2-yl)amino)-N-methylpyridazine-3-carboxamide] | 16 | 454 | 1.7 | 7270 | 0.064 | 26
